What was measured:
[1] = target: G protein-coupled receptor kinase 5 (Homo sapiens) (UniProt P34947); assay: Residual activity of GRK5 at 0.1 uM by microplate scintillation counting
[2] = target: T1, Ephrin type-B receptor 2 (Homo sapiens) (UniProt P29323); assay: Residual activity of EPHB2 at 1 uM by microplate scintillation counting
T1 sequence (whole entry): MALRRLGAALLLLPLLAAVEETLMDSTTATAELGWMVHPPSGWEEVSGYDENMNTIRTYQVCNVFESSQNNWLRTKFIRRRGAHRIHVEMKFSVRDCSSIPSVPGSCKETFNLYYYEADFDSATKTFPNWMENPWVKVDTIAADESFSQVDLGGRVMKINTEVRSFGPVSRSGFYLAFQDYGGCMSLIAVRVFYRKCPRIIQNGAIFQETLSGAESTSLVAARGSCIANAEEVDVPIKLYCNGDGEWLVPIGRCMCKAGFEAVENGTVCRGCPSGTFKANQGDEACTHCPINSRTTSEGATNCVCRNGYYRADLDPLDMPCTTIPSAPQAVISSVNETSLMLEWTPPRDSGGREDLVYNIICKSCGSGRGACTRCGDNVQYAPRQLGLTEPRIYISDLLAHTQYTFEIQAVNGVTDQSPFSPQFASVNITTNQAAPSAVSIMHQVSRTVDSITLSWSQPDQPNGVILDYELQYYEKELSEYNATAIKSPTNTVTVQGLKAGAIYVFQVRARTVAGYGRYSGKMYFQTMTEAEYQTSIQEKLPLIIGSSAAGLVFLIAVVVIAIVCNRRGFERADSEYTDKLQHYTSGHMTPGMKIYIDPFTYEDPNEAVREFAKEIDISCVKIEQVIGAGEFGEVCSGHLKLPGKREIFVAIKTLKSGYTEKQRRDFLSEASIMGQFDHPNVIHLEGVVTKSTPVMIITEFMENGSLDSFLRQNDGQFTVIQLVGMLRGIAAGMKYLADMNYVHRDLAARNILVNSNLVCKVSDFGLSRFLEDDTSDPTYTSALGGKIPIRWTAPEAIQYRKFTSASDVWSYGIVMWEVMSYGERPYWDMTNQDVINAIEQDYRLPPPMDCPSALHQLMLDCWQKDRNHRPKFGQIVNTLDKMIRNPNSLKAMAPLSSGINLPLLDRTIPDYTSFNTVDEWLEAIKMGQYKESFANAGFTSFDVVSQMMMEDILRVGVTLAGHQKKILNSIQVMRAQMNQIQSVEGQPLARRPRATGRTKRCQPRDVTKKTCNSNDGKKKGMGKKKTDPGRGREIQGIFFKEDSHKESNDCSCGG

[3] = target: Dual specificity protein kinase CLK1 (Homo sapiens) (UniProt P49759); assay: Residual activity of CLK1 at 1 uM by microplate scintillation counting
[4] = target: Mitogen-activated protein kinase kinase kinase 14 (Homo sapiens) (UniProt Q99558); assay: Residual activity of NIK at 0.1 uM by microplate scintillation counting
[5] = target: Tyrosine-protein kinase Lck (Homo sapiens) (UniProt P06239); assay: Residual activity of LCK at 10 uM by microplate scintillation counting
[6] = target: T2, G protein-coupled receptor kinase 3 (Homo sapiens) (UniProt P35626); assay: Residual activity of GRK3 at 1 uM by microplate scintillation counting
T2 sequence (whole entry): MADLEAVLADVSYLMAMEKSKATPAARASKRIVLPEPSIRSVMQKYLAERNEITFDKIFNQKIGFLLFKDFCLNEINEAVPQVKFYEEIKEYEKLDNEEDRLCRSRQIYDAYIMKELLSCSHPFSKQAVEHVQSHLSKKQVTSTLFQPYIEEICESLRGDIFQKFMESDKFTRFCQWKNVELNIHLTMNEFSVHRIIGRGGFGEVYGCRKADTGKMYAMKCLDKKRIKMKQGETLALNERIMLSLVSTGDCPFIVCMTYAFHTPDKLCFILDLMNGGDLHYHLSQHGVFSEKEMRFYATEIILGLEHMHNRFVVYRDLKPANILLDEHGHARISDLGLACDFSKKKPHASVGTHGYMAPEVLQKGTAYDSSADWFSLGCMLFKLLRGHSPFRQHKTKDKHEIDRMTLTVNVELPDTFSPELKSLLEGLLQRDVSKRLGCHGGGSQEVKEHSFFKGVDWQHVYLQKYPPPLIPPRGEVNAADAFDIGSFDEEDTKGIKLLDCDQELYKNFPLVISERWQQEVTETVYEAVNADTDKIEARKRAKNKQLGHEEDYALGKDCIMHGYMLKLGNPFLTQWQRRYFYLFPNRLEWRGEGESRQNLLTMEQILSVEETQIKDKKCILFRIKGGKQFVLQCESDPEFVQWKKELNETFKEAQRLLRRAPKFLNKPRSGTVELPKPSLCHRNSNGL

[7] = target: T3, Eukaryotic elongation factor 2 kinase (Homo sapiens) (UniProt O00418); assay: Residual activity of EEF2K at 0.1 uM by microplate scintillation counting
T3 sequence (whole entry): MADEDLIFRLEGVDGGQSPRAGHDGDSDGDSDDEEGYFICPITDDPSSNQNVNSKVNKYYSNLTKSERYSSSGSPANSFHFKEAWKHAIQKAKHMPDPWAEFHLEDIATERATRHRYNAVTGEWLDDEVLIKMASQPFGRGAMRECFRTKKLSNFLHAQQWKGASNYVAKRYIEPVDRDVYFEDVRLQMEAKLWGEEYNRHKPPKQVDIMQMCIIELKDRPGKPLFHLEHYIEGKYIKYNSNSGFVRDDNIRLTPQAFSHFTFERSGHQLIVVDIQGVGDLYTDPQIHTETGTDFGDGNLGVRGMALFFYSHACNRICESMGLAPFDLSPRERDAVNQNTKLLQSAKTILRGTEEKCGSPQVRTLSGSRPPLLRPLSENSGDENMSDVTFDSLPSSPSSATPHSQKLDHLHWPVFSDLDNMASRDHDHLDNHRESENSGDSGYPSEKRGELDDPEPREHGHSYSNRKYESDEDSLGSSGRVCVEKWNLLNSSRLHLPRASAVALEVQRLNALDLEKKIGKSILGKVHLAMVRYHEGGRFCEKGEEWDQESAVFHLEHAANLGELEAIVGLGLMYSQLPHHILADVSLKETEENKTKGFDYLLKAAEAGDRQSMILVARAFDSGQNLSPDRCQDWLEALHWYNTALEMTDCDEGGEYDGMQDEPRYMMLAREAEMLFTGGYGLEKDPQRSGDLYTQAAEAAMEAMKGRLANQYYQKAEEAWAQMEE

Chain of Tyrosine-protein kinase Lck (Homo sapiens) (P06239 2-509 limits assumed): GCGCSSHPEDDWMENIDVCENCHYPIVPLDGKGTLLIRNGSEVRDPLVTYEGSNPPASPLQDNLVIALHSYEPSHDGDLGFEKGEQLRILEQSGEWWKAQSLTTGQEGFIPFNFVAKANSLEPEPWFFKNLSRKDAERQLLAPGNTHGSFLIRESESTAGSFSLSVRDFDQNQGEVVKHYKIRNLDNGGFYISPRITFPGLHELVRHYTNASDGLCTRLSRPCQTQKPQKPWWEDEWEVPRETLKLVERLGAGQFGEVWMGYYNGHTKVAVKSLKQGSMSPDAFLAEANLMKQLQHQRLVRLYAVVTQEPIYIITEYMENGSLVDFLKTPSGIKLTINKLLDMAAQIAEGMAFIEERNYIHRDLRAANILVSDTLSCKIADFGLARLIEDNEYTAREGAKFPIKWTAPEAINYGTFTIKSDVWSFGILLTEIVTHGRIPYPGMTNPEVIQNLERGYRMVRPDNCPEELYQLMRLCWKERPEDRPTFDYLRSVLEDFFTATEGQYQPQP
Chain of Mitogen-activated protein kinase kinase kinase 14 (Homo sapiens) (Q99558 whole entry, looked up): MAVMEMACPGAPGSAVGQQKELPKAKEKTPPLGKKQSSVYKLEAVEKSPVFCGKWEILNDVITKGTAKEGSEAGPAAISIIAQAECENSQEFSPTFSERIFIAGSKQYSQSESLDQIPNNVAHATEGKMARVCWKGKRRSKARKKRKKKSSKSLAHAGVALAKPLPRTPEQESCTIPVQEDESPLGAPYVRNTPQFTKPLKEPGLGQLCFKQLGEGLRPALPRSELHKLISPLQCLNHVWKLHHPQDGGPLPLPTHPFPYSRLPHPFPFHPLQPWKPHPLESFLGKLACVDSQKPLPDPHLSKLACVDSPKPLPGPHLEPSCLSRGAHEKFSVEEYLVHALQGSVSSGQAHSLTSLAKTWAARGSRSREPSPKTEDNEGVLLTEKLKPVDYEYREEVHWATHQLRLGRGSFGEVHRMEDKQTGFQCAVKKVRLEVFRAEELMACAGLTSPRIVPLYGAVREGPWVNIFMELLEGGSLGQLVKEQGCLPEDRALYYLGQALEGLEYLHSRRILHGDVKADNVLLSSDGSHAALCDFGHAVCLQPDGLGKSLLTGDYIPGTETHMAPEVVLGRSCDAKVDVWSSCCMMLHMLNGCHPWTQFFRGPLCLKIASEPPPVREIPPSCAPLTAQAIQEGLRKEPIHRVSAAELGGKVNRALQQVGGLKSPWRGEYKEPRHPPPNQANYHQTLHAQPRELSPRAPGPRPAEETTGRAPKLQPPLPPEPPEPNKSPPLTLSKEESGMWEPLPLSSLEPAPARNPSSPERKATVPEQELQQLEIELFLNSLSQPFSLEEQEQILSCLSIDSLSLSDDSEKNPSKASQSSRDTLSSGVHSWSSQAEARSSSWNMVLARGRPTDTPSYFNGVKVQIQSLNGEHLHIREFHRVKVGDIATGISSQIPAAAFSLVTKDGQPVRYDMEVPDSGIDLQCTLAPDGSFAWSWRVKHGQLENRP
Chain of G protein-coupled receptor kinase 5 (Homo sapiens) (P34947 whole entry, looked up): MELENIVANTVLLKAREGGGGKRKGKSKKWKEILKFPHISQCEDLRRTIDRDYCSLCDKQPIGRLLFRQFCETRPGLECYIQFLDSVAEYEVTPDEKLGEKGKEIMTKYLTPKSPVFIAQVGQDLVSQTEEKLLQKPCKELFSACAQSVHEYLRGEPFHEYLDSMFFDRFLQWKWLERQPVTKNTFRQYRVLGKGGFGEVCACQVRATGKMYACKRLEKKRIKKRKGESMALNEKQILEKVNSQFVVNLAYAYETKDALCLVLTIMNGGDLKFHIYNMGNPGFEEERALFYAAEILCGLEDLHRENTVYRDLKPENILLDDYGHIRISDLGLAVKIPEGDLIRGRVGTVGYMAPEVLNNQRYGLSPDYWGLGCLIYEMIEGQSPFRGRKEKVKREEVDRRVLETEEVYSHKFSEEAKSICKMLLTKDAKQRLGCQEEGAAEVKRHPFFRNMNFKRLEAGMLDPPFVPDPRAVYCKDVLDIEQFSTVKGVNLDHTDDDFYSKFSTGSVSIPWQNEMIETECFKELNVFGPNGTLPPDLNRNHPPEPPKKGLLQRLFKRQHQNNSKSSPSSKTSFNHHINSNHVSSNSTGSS
Chain of Dual specificity protein kinase CLK1 (Homo sapiens) (P49759 whole entry, looked up): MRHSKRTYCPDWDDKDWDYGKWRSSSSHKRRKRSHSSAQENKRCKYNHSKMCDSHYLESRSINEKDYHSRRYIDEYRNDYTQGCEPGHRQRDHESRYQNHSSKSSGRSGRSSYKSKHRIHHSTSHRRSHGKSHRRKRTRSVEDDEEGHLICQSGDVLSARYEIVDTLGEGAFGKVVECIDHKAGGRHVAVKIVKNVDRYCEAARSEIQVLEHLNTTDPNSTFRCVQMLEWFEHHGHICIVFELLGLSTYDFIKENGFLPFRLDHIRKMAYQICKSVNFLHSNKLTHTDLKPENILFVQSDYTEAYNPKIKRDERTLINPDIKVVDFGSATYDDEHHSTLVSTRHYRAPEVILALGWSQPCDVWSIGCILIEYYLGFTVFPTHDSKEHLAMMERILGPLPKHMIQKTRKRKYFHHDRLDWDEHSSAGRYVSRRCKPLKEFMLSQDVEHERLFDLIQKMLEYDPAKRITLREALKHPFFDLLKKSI

Row | residual activity [1] [%] | residual activity [2] [%] | residual activity [3] [%] | residual activity [4] [%] | residual activity [5] [%] | residual activity [6] [%] | residual activity [7] [%] | SMILES
1 | 87 | 86 | 99 | 86 | 4 | 102 | 92 | COc1cc2c(Oc3ccc(-c4nc5ccccc5s4)cc3)ncnc2cc1OCCCN1CCN(C)CC1
2 | 86 | 98 | 107 | 87 | 6 | 98 | 91 | COc1cc2c(Oc3ccc(-c4nc5ccccc5s4)cc3)ncnc2cc1OCCCN1CCCC1
3 | 86 | 72 | 104 | 86 | 2 | 103 | 88 | COc1cc2c(Oc3ccc(-c4nc5ccccc5s4)cc3F)ncnc2cc1OCCCN1CCN(C)CC1
